Experimental data taken from article PMC9374667 (Communications Biology, 2022).
Where “and” joins values, the source holds several entries; their conditions need not be identical. Identical values can stand only once.

Key:
db/db mice = assay: Spontaneous motor activity (CLAMS, infrared beam breaks); format: in vivo; conditions: BBR 150mg/kg, individual mice 1-6
Method: At week 5 of treatment, basal metabolic parameters of mice were measured using the Comprehensive Lab Animal Monitoring System (CLAMS, Columbus Instruments, Columbus, OH). […] The number of times the infrared beams were broken along the X- or Y-axis was used to measure the dynamic activity of mice. The respiratory exchange rate (RER) was calculated using classical Lusk theory and equations RER = VCO2/VO2.

TBK1 = assay: RT-qPCR of Tbk1 in eWAT and BAT; format: in vivo; conditions: db/db mice, both doses of BJ
Excerpt: Total RNA was isolated from 3T3-L1 cells and adipose tissue homogenates using Trizol reagent (Invitrogen, Carlsbad, CA, USA). RNA concentration and purity were examined at 260/280 nm using a nanodrop spectrophotometer (NanoDrop One, Thermo Fisher Scientific, USA). The total RNA was reverse transcribed to cDNA using the EasyScript All-in-One First-Strand cDNA Synthesis SuperMix for qPCR kit (TransGen Biotech, Beijing, China). The quantitative reverse transcription polymerase chain reaction was performed using TransStart Top Green qPCR SuperMix (TransGen Biotech, Beijing, China) and an Applied Biosystems 7500 RealTime PCR System (Life Technologies, USA). Relative expression levels were normalized to gapdh expression and quantified using the 2^-ΔΔCt method. The primers were synthesized by Shanghai Sangon Biotech, and the detailed primer sequences were shown in Supplementary Table 5 in the supplementary materials.

IKKε = target: T1, IKKε (Mus musculus, UniProt Q9R0T8); assay: IKKε-knockdown 3T3-L1 adipocytes (siRNA; western blotting, cAMP, glycerol, ISO); format: cell-based, Murine; parameters: endogenous in cells; host or cells: differentiated 3T3-L1 adipocytes; conditions: for Glycerol (Figure 9l) / UCP1 (western blotting, Figure 9J) / cAMP (Figure 9k): 10μM BJ +
T1 sequence (Q9R0T8 1-717): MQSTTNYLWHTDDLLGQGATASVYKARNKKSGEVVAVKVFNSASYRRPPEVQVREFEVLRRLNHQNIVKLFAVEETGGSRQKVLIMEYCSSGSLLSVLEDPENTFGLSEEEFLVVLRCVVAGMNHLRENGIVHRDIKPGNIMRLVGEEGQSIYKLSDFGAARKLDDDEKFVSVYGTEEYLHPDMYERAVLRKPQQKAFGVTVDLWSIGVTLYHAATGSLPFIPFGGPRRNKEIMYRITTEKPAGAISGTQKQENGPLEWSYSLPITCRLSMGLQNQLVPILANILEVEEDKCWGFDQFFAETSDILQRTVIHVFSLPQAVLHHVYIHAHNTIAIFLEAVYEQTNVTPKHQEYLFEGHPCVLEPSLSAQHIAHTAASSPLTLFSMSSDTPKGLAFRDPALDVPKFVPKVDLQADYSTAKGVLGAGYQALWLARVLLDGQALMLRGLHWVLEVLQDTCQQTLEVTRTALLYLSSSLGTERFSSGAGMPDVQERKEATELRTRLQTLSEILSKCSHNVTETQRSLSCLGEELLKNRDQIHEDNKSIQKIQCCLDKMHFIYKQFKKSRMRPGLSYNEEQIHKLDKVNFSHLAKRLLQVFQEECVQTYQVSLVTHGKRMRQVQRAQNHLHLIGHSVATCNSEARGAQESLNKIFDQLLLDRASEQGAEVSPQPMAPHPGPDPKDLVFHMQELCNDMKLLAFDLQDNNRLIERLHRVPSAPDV
Method: Small interference RNA transfection (siRNA) was performed using 4 μM TBK1 siRNA (siTBK1) or 4 μM […]ε) or corresponding NC siRNA (siNC). The epididymal adipose tissue was dissected, the fresh adipose tissue was weighed and rapidly rinsed with PBS. The adipose tissue was cut and incubated with isoproterenol (10 μM) for 2 h, and homogenized in a cold cleavage buffer to prepare the adipose tissue homogenate. Then the homogenate was centrifuged at 12,000 × g at 4 °C for 15 min, and the supernatant was collected. […] Then the cells were lysed in a petri dish, scraped off, and centrifuged at 12,000 × g at 4 °C for 15 min before the supernatant was collected. […] And concentrations were further standardized according to protein concentration. The adipose tissue or 3T3-L1 adipocytes were homogenized by ultrasound in an ice-cold RIPA lysis buffer containing 1% PMSF and centrifuged at 12,000 × g at 4°C for 15 min to collect the supernatant. The BCA protein assay kit (Beyotime, Shanghai, China) was used to detect the total protein concentration. Proteins (20-30 μg) of the sample were separated by 10% SDS-PAGE gel and transferred onto polyvinylidene difluoride (PVDF) membranes. Then the PVDF membranes were blocked in 5% skim milk powder in TBS containing 1% Tween-20 (TBST) for 2 h at room temperature and washed with TBST for 3 times. […] After washing, the membranes were incubated with horseradish peroxidase-conjugated secondary antibodies (in 5% skim milk powder) for 1 h at room temperature. Finally, the membranes were treated with enhanced chemiluminescence agents (Tanon, Shanghai, China) and the signals were monitored using the Tanon 5200 multi chemiluminescent imaging system (Tanon, Shanghai, China).

COc1ccc2cc3[n+](cc2c1OC)CCc1cc2c(cc1-3)OCO2 [BBR, Berberine chloride dihydrate]
Spontaneous motor activity (Figure 3j) (db/db mice; TIME 09:00:00): 453.5 and 1366 and 855.5 and 150 and 210.5 and 798 | Spontaneous motor activity (Figure 3j) (db/db mice; TIME 10:00:00): 578.5 and 328 and 167.5 and 335.5 and 115 and 382 | Spontaneous motor activity (Figure 3j) (db/db mice; TIME 11:00:00): 144.5 and 288.5 and 281.5 and 646 and 886.5 and 449 | Spontaneous motor activity (Figure 3j) (db/db mice; TIME 12:00:00): 559 and 373.5 and 450.5 and 378.5 and 424.5 and 29.5 | Spontaneous motor activity (Figure 3j) (db/db mice; TIME 13:00:00): 620.5 and 553.5 and 835.5 and 411 and 498 and 330 | Spontaneous motor activity (Figure 3j) (db/db mice; TIME 14:00:00): 823.5 and 171 and 498 and 447 and 397.5 and 455 | Spontaneous motor activity (Figure 3j) (db/db mice; TIME 15:00:00): 870 and 677.5 and 611.5 and 326 and 849.5 and 246 | Spontaneous motor activity (Figure 3j) (db/db mice; TIME 16:00:00): 482.5 and 647.5 and 365.5 and 416.5 and 803.5 and 105 | Spontaneous motor activity (Figure 3j) (db/db mice; TIME 17:00:00): 814 and 1029.5 and 535.5 and 427.5 and 177.5 and 328 | Spontaneous motor activity (Figure 3j) (db/db mice; TIME 18:00:00): 694 and 351 and 1055.5 and 323.5 and 1331.5 and 362 | Spontaneous motor activity (Figure 3j) (db/db mice; TIME 19:00:00): 242 and 551.5 and 453.5 and 327.5 and 706.5 and 367 | Spontaneous motor activity (Figure 3j) (db/db mice; TIME 20:00:00): 34.5 and 1152.5 and 475 and 298.5 and 432.5 and 477 | Spontaneous motor activity (Figure 3j) (db/db mice; TIME 21:00:00): 863 and 737 and 845.5 and 99.5 and 506 and 314 | Spontaneous motor activity (Figure 3j) (db/db mice; TIME 22:00:00): 320.5 and 467 and 701 and 142 and 156 and 371.5 | Spontaneous motor activity (Figure 3j) (db/db mice; TIME 23:00:00): 428.5 and 928 and 390.5 and 869 and 897 and 315.5 | Spontaneous motor activity (Figure 3j) (db/db mice; TIME 1900-01-01 01:00:00): 479.5 and 494 and 426 and 899 | Spontaneous motor activity (Figure 3j) (db/db mice; TIME 1900-01-01): 542.5 and 374 and 305.5 and 238 and 658 and 526

CC(C)Cc1ccc(C(C)C(=O)[O-])cc1.COc1ccc2cc3[n+](cc2c1OC)CCc1cc2c(cc1-3)OCO2.O.O.O.O [BJ, berberine-ibuprofen]
Tbk1 mRNA expression in BAT (TBK1): had no effect | mRNA level of TBK1 (Tbk1) in eWAT (TBK1): significantly reduced | IKKϵ (western blotting, Figure 9h) (IKKε; 10μM BJ): 0.1875 and 0.2278 and 0.214 | UCP1 (western blotting, Figure 9i) (IKKε; 10μM BJ): 0.3644 and 0.4778 and 0.4436 | Expression of UCP1 (IKKε; 3T3-L1 adipocytes treated with BJ alone): significantly increased | UCP1 expression (IKKε; IKKε-knockdown 3T3-L1 adipocytes treated with BJ, vs IKKε-knockdown): not significantly altered | cAMP accumulation, glycerol release, and UCP1 expression (IKKε; IKKε-knockdown 3T3-L1 adipocytes, ISO stimulation, BJ vs IKKε-knockdown): did not significantly increase the above changes | cAMP accumulation, glycerol release, and UCP1 expression (IKKε; ISO-stimulated 3T3-L1 adipocytes, BJ treatment alone): significantly increased cAMP accumulation, glycerol release, and UCP1 expression | Glycerol (Figure 9l) (IKKε; siIKKϵ +, ISO +): 176.805 µmol/L and 182.076 µmol/L and 176.254 µmol/L | UCP1 (western blotting, Figure 9J) (IKKε; siIKKϵ +, ISO +): 0.785 and 0.7814 and 0.8472 | cAMP (Figure 9k) (IKKε; siIKKϵ +, ISO +): 0.4194 pmol/mg protein and 0.4185 pmol/mg protein and 0.3432 pmol/mg protein and 0.371 pmol/mg protein and 0.3866 pmol/mg protein and 0.405 pmol/mg protein | Glycerol (Figure 9l) (IKKε; siIKKϵ +, ISO -): 89.0822 µmol/L and 96.3611 µmol/L and 91.9299 µmol/L | UCP1 (western blotting, Figure 9J) (IKKε; siIKKϵ +, ISO -): 0.6376 and 0.6905 and 0.6507 | cAMP (Figure 9k) (IKKε; siIKKϵ +, ISO -): 0.2155 pmol/mg protein and 0.2223 pmol/mg protein and 0.1908 pmol/mg protein and 0.2097 pmol/mg protein and 0.2158 pmol/mg protein and 0.2252 pmol/mg protein | Glycerol (Figure 9l) (IKKε; siIKKϵ -, ISO +): 156.977 µmol/L and 167.166 µmol/L and 170.891 µmol/L | UCP1 (western blotting, Figure 9J) (IKKε; siIKKϵ -, ISO +): 0.6574 and 0.7704 and 0.6754 | cAMP (Figure 9k) (IKKε; siIKKϵ -, ISO +): 0.362 pmol/mg protein and 0.3606 pmol/mg protein and 0.3205 pmol/mg protein and 0.3322 pmol/mg protein and 0.3416 pmol/mg protein and 0.3545 pmol/mg protein | Glycerol (Figure 9l) (IKKε; siIKKϵ -, ISO -): 81.5401 µmol/L and 78.1125 µmol/L and 83.122 µmol/L | UCP1 (western blotting, Figure 9J) (IKKε; siIKKϵ -, ISO -): 0.5736 and 0.639 and 0.5661 | cAMP (Figure 9k) (IKKε; siIKKϵ -, ISO -): 0.1756 pmol/mg protein and 0.1959 pmol/mg protein and 0.2053 pmol/mg protein and 0.1755 pmol/mg protein and 0.1805 pmol/mg protein and 0.1893 pmol/mg protein | IKKϵ (western blotting, Figure 9h) (IKKε; siIKKϵ+10μM BJ): 0.09311 and 0.1256 and 0.1406 | UCP1 (western blotting, Figure 9i) (IKKε; siIKKϵ+10μM BJ): 0.4915 and 0.4988 and 0.5593
